In data set [1] the target is T1, Purine nucleoside phosphorylase (PfPNP) (Plasmodium falciparum, UniProt Q8I3X4).
T1 construct: gene PNP
T1 sequence (Q8I3X4 1-245): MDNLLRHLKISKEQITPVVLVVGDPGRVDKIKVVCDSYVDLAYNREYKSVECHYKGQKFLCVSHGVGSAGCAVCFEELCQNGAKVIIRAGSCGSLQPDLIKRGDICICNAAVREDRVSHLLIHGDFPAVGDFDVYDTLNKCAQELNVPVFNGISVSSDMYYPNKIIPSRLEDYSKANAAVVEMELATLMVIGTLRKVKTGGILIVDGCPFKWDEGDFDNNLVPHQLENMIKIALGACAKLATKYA
In words: xanthine oxidase-coupled inosine phosphorolysis assay. The class given is biochemical.

For data set [2], the target named is T2, Falcilysin (Plasmodium falciparum, UniProt Q76NL8).
T2 construct: gene FLN
T2 sequence (Q76NL8 whole entry): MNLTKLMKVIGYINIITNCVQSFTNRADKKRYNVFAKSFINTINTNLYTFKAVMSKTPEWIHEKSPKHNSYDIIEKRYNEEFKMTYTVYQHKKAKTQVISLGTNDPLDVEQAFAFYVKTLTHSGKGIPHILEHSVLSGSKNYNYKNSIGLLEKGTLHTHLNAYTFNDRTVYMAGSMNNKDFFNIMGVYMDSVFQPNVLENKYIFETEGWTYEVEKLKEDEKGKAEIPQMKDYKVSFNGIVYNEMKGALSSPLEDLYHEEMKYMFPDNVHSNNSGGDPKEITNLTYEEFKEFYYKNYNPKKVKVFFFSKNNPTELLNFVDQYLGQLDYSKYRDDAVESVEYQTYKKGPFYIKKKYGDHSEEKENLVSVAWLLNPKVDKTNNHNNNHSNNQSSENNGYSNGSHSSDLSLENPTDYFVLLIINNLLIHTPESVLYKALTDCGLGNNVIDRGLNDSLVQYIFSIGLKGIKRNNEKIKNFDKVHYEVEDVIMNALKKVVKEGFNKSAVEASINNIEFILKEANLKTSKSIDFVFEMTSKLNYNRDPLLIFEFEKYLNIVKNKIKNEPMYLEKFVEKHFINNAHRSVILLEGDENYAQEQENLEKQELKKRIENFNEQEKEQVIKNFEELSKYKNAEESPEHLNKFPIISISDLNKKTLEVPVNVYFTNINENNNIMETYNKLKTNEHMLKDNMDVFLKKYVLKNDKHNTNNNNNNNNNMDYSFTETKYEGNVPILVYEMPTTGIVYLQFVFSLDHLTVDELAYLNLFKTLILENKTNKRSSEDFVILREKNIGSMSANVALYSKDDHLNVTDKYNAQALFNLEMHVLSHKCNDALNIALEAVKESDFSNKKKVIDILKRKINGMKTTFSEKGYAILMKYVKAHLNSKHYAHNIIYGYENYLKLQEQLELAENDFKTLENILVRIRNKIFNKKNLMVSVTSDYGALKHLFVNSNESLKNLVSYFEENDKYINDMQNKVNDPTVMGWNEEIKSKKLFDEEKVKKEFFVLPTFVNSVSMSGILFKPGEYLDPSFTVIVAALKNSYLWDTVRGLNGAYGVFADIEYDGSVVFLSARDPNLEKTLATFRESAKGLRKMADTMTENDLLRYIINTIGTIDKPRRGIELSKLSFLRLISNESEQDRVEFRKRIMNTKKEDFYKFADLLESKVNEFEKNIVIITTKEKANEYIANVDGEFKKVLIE
Kind of data set: MS-CETSA (ITDR), intact infected erythrocytes and parasite lysate; minimal dose threshold. Type of data set: cell-based.

For data set [3], the target named is T1, Purine nucleoside phosphorylase (PfPNP). In words: ITC; cocrystal structure at […] Å; also DSF, CETSA and enzyme inhibition (IC50 […], Ki […]). Type of data set: binding. On the technique in general: ITC needs no label: the signal is the heat of the interaction.
For data set [4] the target is unchanged. Kind of data set: Michaelis-Menten kinetics of the purified enzyme. Type of data set: biochemical.
Data set [5] deals with the molecule itself. In words: crystal structure; co-crystal of PfPNP (37 mg/ml) with 3 mM MMV000848, sitting-drop vapor diffusion at 20 °C, 10% (w/v) PEG 1000; 1.85 Å, space group R32; hexamer formed through crystallographic symmetry.

Where two headings read alike, the source gives them in different places.

The results in this text go back to PMC10911062, “Identification and structural validation of purine nucleoside phosphorylase from Plasmodium falciparum as a target of MMV000848” (The Journal of Biological Chemistry, 2023).

As usually defined, the IC50 is the concentration that gives 50% inhibition. `OC(c1cc(C(F)(F)F)nc2c(C(F)(F)F)cccc12)C1CCCCN1` (racemic) [mefloquine] displayed an IC50 in data set [1] of 327 µM. A word on the Kd: it is a measure of binding affinity in units of concentration. A higher Kd goes with a looser complex. Regarding `OC(CNC1CCCC1)Cn1c2ccccc2c2ccccc21` (stereo not drawn) [MMV000848, 1-carbazol-9-yl-3-cyclopentylamino-propan-2-ol], in data set [2], the “MDT” value is 749.91 nM. This molecule displayed a Kd in data set [3] of 1.52 µM. `O=c1[nH]cnc2c1ncn2[C@@H]1O[C@H](CO)[C@@H](O)[C@H]1O` [inosine]: the “Michaelis-Menten kinetics of the purified enzyme” value in data set [4] is on record as “Measurements of KM,app (apparent KM) of inosine was made in the presence of various concentrations of MMV000848”.

For `C=C[C@H]1C[N@@]2CC[C@H]1C[C@H]2[C@H](O)c1ccnc2ccc(OC)cc12` [quinine], in data set [1] (read-out: IC50), the IC50 is 11.3 µM.

B1: Plasmodium falciparum purine nucleoside phosphorylase (enzyme)
chain: T1 sequence (Q8I3X4 1-245)
notes: Purine nucleoside phosphorylase of Plasmodium falciparum, PlasmoDB PF3D7_0513300; gene subcloned into pNIC-CH; Homo-hexamer (three 2-fold symmetrical dimers around a crystallographic three-fold axis); one protein chain in the asymmetric unit; also called PfPNP; PNP; source: Rosetta BL21-DE3 Escherichia coli, purified (IMAC on HisTrapHP, SEC on Superdex 200)
The stoichiometry N is the number of molecules, sites or subunits per partner or assembly. With B1, in data set [5], the “stoichiometry N” value stood at 6.
